Reference: paper PMC11129195, “Novel Re(I) Complexes as Potential Selective Theranostic Agents in Cancer Cells and In Vivo in Caenorhabditis elegans Tumoral Strains” (Journal of Medicinal Chemistry, 2024)

How the values were obtained:
HeLa = experiment: MTT antiproliferative activity in HeLa cells; assay type: cell-based, human; details: MTT test, 48 h of treatment
Protocol: (§1) Human ovarian carcinoma cell lines (A2780) were cultured in RPMI-1640 medium, while the human cervix adenocarcinoma cell line (HeLa), tumor breast cancer cell line, and nontumorigenic buffalo green monkey cells (BGM) were cultured in DMEM and EMEM (containing nonessential amino acids) medium. The cell culture media were supplemented with 10% fetal bovine serum (FBS), 1% L-glutamine, and 1% penicillin/streptomycin. The cells were maintained in a humidified incubator at 37 °C with a 5% CO2 atmosphere and subcultured 2–3 times a week, each with an appropriate density for its specific cell line. Prior to the experiments, the cell lines were confirmed to be free from mycoplasma contamination using Hoechst DNA staining standard procedures. During cell-based assays, the maximum amount of dimethyl sulfoxide (DMSO) added as a solvent for treatment was limited to 0.4% (v/v) to avoid any potential vehicle-induced toxicity to the cells. Cells were cultured in 96-well plates and allowed to reach confluence. The tested compounds were dissolved in DMSO at a maximum concentration of 0.4% (v/v) and immediately diluted with fresh media. The cells were then incubated with varying concentrations of the Re1–Re9 for 48 h at 37 °C. […] The absorbance at 570 nm was measured using a microplate reader (FLUOstar Omega).

A2780 = experiment: MTT antiproliferative activity in A2780 cells; assay type: cell-based, human; details: MTT test, 48 h of treatment
Protocol: as §1

BGM = experiment: MTT test in nontumorigenic BGM cells; assay type: cell-based, buffalo green monkey; details: 48 h of treatment, normal cells
Protocol: as §1

A2780 cells [1] = experiment: Scanning electron microscopy of cell morphology; assay type: cell-based, human; details: A2780, 24 h
Protocol: A2780 cells were treated with CDDP and Re9 for 24 h. Cells then were fixed with 4% PFA fix solution for 30 min and washed with PBS three times. Sample were dehydrated through a graded series of ethanol (30, 50, 70, 95, and 100%), dried by the tertiary butanol method, and then imaged with a SEM operating at 20.0 kV.

A2780 cells [2] = experiment: Annexin V-FITC/PI dual staining, flow cytometry; assay type: cell-based, human; details: 10 μM, 24 h
Protocol: The annexin V/PI assay was performed following the instructions provided by the manufacturer (Roche). A2780 cells were seeded in 12-well plates at a density of 3 × 10^5 cells/well and incubated overnight. […] After the treatment, the cells were collected and stained with annexin V and PI, following the procedure mentioned earlier. The staining was carried out at room temperature for 15 min in the absence of light, and the samples were immediately analyzed using flow cytometry (FACSCalibur Beckton Dickinson) with an excitation wavelength of 488 nm. The absorbance at 488 nm of compound Re9 was considered negligible. The data obtained from the assay were analyzed using FlowJo Software (TreeStar).

A2780 cells [3] = experiment: DNA damage by pH2AX staining, flow cytometry; assay type: cell-based, human; details: A2780, 24 h
Protocol: DNA damage was evaluated by flow cytometry in A2780 cells. […] Cells were then collected by trypsinization, washed with PBS, and fixed in 200 μL 0.2% PFA for 5 min. After fixation, cells were pelleted, suspended in a 3% FBS solution containing anti phospho-H2AX ([…]) FITC-conjugated monoclonal antibody (CR55T33, eBioscience) at a concentration of 0.6 μg/mL, and incubated for 2 h at room temperature in the dark. Analysis of stained cells was carried out using a Becton Dickinson FACSCalibur flow cytometer with 10,000 acquisitions per sample, registering the FL1-H channel (λexc = 488 nm). Two independent experiments, each with n = 2, were conducted.

C. elegans strain MT2124 = assay type: in vivo, Caenorhabditis elegans
Source text: Caenorhabditis elegans strains JK1466 [gld-1(q485)/dpy-5(e61) unc-13(e51)] and MT2124 [let-60(n1046)] were kindly donated by the Caenorhabditis Genetic Center (CGC, Saint Paul, Minnesota, United States), which is funded by the “NIH Office of Research Infrastructure Programs” (P40 OD010440). The strains were maintained and cultured following the protocols established by Stiernagle.[78]−[80] Synchronous cohorts of C. elegans prepared using the bleach method were used in all the assays.
MT2124 (Muv phenotype) L1 larvae were incubated for 72 h at 20 °C in S basal medium with different concentrations of Re9 (0.1–150 μM) supplemented with E. coli OP50. Antitumoral evaluation was performed following the protocol described by Medina and coauthors with modifications.[81] Ten microliters of a suspension containing young adult nematodes were place in a microscope slide along with 10 μL of sodium azide to reduce its movement. Images of whole worms were taken at 10× magnification using the bright-field microscope. The animals were classified as multivulva (MT) if they had more than one vulva protruding from the […] (Figure 12B) or wild-type if they only had one (WT). Then, the percentage of multivulva animals were calculated with eq 1. [drawing 1] 1
Additionally, the number of vulvas of the multivulva animals were counted. Two independent assays were performed with n ≥ 25 and the statistical significance was estimated by the ANOVA test.

C. elegans strain JK1466 = system: C. elegans strain JK1466; set-up: method as in earlier work; details: ref "Recent studies"; cited from earlier work
wild-type C. elegans = system: wild-type C. elegans; set-up: method as in PMID 29752286; details: 100 μM, cited from earlier work
A2780 cells [4] = experiment: Mitochondrial membrane potential, JC-1 staining; assay type: cell-based, human; details: Re9 1.25 and 2.5 μM, 24 h, antimycin A 6 h
Protocol: After the treatment period, the cells were collected and resuspended in prewarmed PBS containing JC-1 (1 μM). The cell suspension was then incubated for 30 min at 37 °C. Following the incubation, the cells were washed twice with PBS and immediately analyzed using a flow cytometer (FACSCAlibur Beckton Dickinson). Fluorescence measurements were performed by detecting both the monomeric (emission at 530 ± 30 nm; green) and aggregated (emission at 585 ± 30 nm; red) forms of JC-1 upon excitation at 488 nm. For each sample, a total of 10,000 events were acquired during the analysis.

| Structure (SMILES) | IC50 (HeLa) | IC50 (A2780) | IC50 (BGM) | cell death type from SEM morphology (A2780 cells [1]) | Q2 cells (annexin V+/PI+, late apoptotic or pyroptotic) (A2780 cells [2]) | Q3 cells (annexin V+/PI–, early apoptotic) (A2780 cells [2]) | DNA damage (pH2AX staining) (A2780 cells [3]) | reduction of MT phenotypic incidence (C. elegans strain MT2124; 50 μM) | reduction of the number of vulvas (C. elegans strain MT2124; 50 μM) | MT (multivulva animals) (C. elegans strain MT2124; 50 μM, 72 h) | WT (wild-type nematodes) (C. elegans strain MT2124; 50 μM, 72 h) | n° vulvas (C. elegans strain MT2124; 50 μM, multivulva phenotype nematodes) | effect of concentrations above 50 μM on the nematodes (C. elegans strain MT2124; in vivo) | reduction of tumor size (C. elegans strain JK1466) | progeny, share of the expected brood (wild-type C. elegans; L4 animals) | reduction of animal size (wild-type C. elegans; wild-type larvae, 48 h) | development stage (wild-type C. elegans; wild-type, 48 h) | mitochondrial membrane potential (MMP) levels (A2780 cells [4]) |
| --- | --- | --- | --- | --- | --- | --- | --- | --- | --- | --- | --- | --- | --- | --- | --- | --- | --- | --- |
| N.N.[Cl][Pt][Cl] [cisplatin] | 23.3 ± 2 µM | 2.9 ± 0.4 µM | 6.8 ± 0.9 µM | apoptosis | 16.9% | 13.8% | significantly contributed to the induction of DNA damage | 58.2% | 52% | 34.62% | 65.38% | 1.40 | developmental arrest | 48% | 10% | 75% | L2 stage |  |
| CCCCCC[C@H]1C(=O)O[C@H](C)[C@H](NC(=O)c2cccc(NC=O)c2O)C(=O)O[C@@H](C)[C@@H]1OC(=O)CC(C)C [antimycin A, Antimycin A] |  |  |  |  |  |  |  |  |  |  |  |  |  |  |  |  |  | significant decrease in MMP levels |
